In patent US8772293B2, “Chemical compounds” (Pfizer Limited, priority 2010, dated 2014):
Counter-ions that a name gives are not always drawn.

Target: T1, Nav1.7 (or SCN9A) channel (Homo sapiens, UniProt Q15858)
T1 construct: expressed in transfected cells
Test: Nav1.7 (hSCN9A) PatchXpress electrophysiology in HEK cells
Type: cell-based
Conditions: PatchXpress platform; HEK cells stably expressing hSCN9A; held at V1/2 of inactivation; calculated from single point % inhibition; read-out: Nav1.7 EIC50 (estimated IC-50)
Protocol: The ability of the compounds of formula (I) to block the Nav1.7 (or SCN9A) channel were measured using the assay described below.
Human Embryonic Kidney (HEK) cells were transfected with an hSCN9A construct using lipofectamine reagent (Invitrogen), using standard techniques. Cells stably expressing the hSCN9A constructs were identified by their resistance to G-418 (400 μg/ml). Clones were screened for expression using the whole-cell voltage-clamp technique.
HEK cells stably transfected with hSCN9A were maintained in DMEM medium supplemented with 10% heat-inactivated fetal bovine serum and 400 µg/ml G-418 in an incubator at 37° C. with a humidified atmosphere of 10% CO2. For HTS, cells were harvested from flasks by trypsinization and replated in an appropriate multi-well plate (typically 96 or 384 wells/plate) such that confluence would be achieved within 24 hours of plating. For electrophysiological studies, cells were removed from the culture flask by brief trypsinization and re-plated at low density onto glass cover slips. Cells were typically used for electrophysiological experiments within 24 to 72 hours after plating.
Cover slips containing HEK cells expressing hSCN9A were placed in a bath on the stage of an inverted microscope and perfused (approximately 1 ml/minutes) with extracellular solution of the following composition: 138 mM NaCl, 2 mM CaCl2, 5.4 mM KCl, 1 mM MgCl2, 10 mM glucose, and 10 mM HEPES, pH 7.4, with NaOH. […] The osmolarity of the extracellular and intracellular solutions was 300 mOsm/kg and 295 mOsm/kg, respectively. All recordings were made at room temperature (22-24° C.) using AXOPATCH 200B amplifiers and PCLAMP software (Axon Instruments, Burlingame, Calif.).
hSCN9A currents in HEK cells were measured using the whole-cell configuration of the patch-clamp technique (Hamill et al., 1981). Uncompensated series resistance was typically 2 to 5 mega ohms and >85% series resistance compensation was routinely achieved. As a result, voltage errors were negligible and no correction was applied. Current records were acquired at 20 to 50 KHz and filtered at 5 to 10 KHz.
HEK cells stably transfected with hSCN9A were viewed under Hoffman contrast optics and placed in front of an array of flow pipes emitting either control or compound-containing extracellular solutions. All compounds were dissolved in dimethyl sulfoxide to make 10 mM stock solutions, which were then diluted into extracellular solution to attain the final concentrations desired. […] The voltage-dependence of inactivation was determined by applying a series of depolarizing prepulses (8 sec long in 10 mV increments) from a negative holding potential. The voltage was then immediately stepped to 0 mV to assess the magnitude of the sodium current. Currents elicited at 0 mV were plotted as a function of prepulse potential to allow estimation of the voltage at which 50% of the channels were inactivated (midpoint of inactivation or V1/2). Compounds were tested for their ability to inhibit hSCN9A sodium channels by activating the channel with a 20 msec voltage step to 0 mV following an 8 second conditioning prepulse to the empirically determined V1/2. Compound effect (% inhibition) was determined by difference in current amplitude before and after application of test compounds. For ease of comparison, “estimated IC-50” (EIC50) values were calculated from single point electrophysiology data by the following equation, (tested concentration, uM)×(100-% inhibition/% inhibition). Inhibition values <20% and >80% were excluded from the calculation.
Electrophysiological assays were conducted with PatchXpress 7000 hardware and associated software (Molecular Devices Corp). All assay buffers and solutions were identical to those used in conventional whole-cell voltage clamp experiments described above. hSCN9A cells were grown as above to 50%-80% confluency and harvested by trypsinization. […]

T1 sequence (Q15858 whole entry): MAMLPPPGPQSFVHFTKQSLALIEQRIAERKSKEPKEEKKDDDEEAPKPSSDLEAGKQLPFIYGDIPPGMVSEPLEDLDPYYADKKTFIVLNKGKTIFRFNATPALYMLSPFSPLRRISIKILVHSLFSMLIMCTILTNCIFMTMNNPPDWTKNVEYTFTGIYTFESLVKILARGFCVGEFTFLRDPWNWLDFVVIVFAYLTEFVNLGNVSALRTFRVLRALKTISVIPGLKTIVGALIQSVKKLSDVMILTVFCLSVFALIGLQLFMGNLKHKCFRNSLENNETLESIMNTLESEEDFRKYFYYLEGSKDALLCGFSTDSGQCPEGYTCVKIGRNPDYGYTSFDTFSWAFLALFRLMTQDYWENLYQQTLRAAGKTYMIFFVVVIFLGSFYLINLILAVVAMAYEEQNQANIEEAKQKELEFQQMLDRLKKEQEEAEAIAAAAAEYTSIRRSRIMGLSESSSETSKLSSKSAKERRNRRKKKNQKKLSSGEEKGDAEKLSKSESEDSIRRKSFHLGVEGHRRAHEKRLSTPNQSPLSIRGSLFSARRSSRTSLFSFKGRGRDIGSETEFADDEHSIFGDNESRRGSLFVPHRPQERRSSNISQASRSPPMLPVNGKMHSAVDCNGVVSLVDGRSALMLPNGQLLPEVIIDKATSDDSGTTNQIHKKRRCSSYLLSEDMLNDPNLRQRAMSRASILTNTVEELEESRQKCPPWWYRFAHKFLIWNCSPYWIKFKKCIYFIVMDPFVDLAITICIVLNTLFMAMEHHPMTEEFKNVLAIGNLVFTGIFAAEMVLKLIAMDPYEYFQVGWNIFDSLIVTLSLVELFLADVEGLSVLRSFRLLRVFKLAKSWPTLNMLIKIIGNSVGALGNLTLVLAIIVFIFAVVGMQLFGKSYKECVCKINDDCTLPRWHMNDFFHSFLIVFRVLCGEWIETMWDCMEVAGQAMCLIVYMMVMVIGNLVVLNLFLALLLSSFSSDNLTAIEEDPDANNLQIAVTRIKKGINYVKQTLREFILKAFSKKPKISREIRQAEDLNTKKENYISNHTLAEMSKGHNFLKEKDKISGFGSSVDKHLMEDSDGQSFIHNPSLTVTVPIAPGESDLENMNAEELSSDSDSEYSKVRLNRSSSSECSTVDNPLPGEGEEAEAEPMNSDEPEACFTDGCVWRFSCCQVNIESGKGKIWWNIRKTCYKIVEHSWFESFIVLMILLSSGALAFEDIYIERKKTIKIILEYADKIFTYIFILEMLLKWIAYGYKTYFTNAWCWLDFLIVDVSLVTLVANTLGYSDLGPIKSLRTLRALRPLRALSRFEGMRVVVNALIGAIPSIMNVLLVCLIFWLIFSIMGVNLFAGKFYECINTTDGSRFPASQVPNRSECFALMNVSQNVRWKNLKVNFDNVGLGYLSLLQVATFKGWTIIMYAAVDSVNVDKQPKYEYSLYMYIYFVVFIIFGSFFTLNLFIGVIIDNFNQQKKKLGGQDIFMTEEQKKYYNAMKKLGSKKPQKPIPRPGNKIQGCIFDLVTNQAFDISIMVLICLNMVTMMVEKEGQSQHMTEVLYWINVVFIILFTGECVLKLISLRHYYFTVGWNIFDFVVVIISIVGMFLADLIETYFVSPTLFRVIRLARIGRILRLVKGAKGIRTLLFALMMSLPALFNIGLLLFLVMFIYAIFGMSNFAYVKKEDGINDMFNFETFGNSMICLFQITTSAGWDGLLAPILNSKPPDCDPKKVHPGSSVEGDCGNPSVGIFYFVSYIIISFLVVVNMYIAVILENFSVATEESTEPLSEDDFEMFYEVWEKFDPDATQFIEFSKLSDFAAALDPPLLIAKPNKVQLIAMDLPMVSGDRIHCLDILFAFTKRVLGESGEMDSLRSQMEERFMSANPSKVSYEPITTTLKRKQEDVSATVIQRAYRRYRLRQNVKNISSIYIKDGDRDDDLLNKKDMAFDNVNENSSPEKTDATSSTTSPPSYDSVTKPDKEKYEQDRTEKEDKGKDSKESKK

Q: With `N#Cc1cc(S(=O)(=O)Nc2ncns2)ccc1Oc1ccc(-c2cccc(C(F)(F)F)c2)cc1-c1ccnnc1` [Example 1, 3-Cyano-4-{[3-pyridazin-4-yl-3′-(trifluoromethyl)biphenyl-4-yl]oxy}-N-1,2,4-thiadiazol-5-ylbenzenesulfonamide] as the compound, how does the IC50 read?
A: The IC50 was 1.8 nM.

Q: How did the IC50 turn out when `O=S(=O)(Nc1ncccn1)c1cc(Cl)c(Oc2ccc(-c3ccc(C(F)(F)F)cc3)cc2-c2ccnnc2)cc1F` [Example 2, 5-Chloro-2-fluoro-4-{[3-pyridazin-4-yl-4′-(trifluoromethyl)biphenyl-4-yl]oxy}-N-pyrimidin-2-ylbenzenesulfonamide] was run?
A: The IC50 was 8.1 nM.

Q: For `O=S(=O)(Nc1cccnn1)c1ccc(Oc2ccc(-c3ccc(C(F)(F)F)cc3)cc2-c2ccnnc2)c(Cl)c1` [Example 3, 3-Chloro-N-pyridazin-3-yl-4-{[3-pyridazin-4-yl-4′-(trifluoromethyl)biphenyl-4-yl]oxy}benzenesulfonamide], which IC50 is on record?
A: Its IC50 is 31 nM.

Q: With `O=S(=O)(Nc1nncs1)c1cc(Cl)c(Oc2ccc(-c3ccccc3C(F)(F)F)cc2-c2ccnnc2)cc1F` [Example 4, 5-Chloro-2-fluoro-4-{[3-pyridazin-4-yl-2′-(trifluoromethyl)biphenyl-4-yl]oxy}-N-1,3,4-thiadiazol-2-ylbenzenesulfonamide] as the compound, how does the IC50 read?
A: Its IC50 is 2.9 nM.

Q: Which IC50 does the source give for `O=S(=O)(Nc1nncs1)c1cc(Cl)c(Oc2ccc(-c3cccc(C(F)(F)F)c3)cc2-c2ccnnc2)cc1F` [Example 5] here?
A: Its IC50 is 1.3 nM.

Q: With `O=S(=O)(Nc1nncs1)c1cc(Cl)c(Oc2ccc(-c3ccc(C(F)(F)F)cc3)cc2-c2ccnnc2)cc1F` [Example 6, 5-Chloro-2-fluoro-4-{[3-pyridazin-4-yl-4′-(trifluoromethyl)biphenyl-4-yl]oxy}-N-1,3,4-thiadiazol-2-ylbenzenesulfonamide] as the compound, how does the IC50 read?
A: The IC50 was 2.9 nM.

Q: For `N#Cc1cc(S(=O)(=O)Nc2ncns2)ccc1Oc1ccc(-c2ccc(C(F)(F)F)cc2)cc1-c1ccnnc1` [Example 7, 3-Cyano-4-{[3-pyridazin-4-yl-4′-(trifluoromethyl)biphenyl-4-yl]oxy}-N-1,2,4-thiadiazol-5-ylbenzenesulfonamide], which IC50 is on record?
A: Its IC50 is 1.2 nM.

Q: `Cn1nccc1-c1cc(-c2ccccc2)ccc1Oc1ccc(S(=O)(=O)Nc2nccs2)cc1F` [Example 8, 3-Fluoro-4-{[3-(1-methyl-1H-pyrazol-5-yl)biphenyl-4-yl]oxy}-N-1,3-thiazol-2-ylbenzenesulfonamide] was tested. Which IC50 did it give?
A: Its IC50 is 32 nM.

Q: With `O=S(=O)(Nc1nncs1)c1ccc(Oc2ccc(-c3ccccc3)cc2-c2ccnnc2)c(Cl)c1` [Example 9, 3-Chloro-4-[(3-pyridazin-4-ylbiphenyl-4-yl)oxy]-N-1,3,4-thiadiazol-2-ylbenzenesulfonamide] as the compound, how does the IC50 read?
A: Its IC50 is 11.6 nM.

Q: Which IC50 does the source give for `N#Cc1cc(S(=O)(=O)Nc2nncs2)ccc1Oc1ccc(-c2ccccc2)cc1-c1ccnnc1` [Example 10, 3-Cyano-4-[(3-Pyridazin-4-ylbiphenyl-4-yl)oxy]-N-1,3,4-thiadiazol-2-ylbenzenesulfonamide] here?
A: Its IC50 is 53 nM.

Q: How did the IC50 turn out when `O=S(=O)(Nc1nncs1)c1cc(Cl)c(Oc2ccc(-c3ccccc3)cc2-c2ccnnc2)cc1F` [Example 11, 5-Chloro-2-fluoro-4-[(3-pyridazin-4-ylbiphenyl-4-yl)oxy]-N-1,3,4-thiadiazol-2-ylbenzenesulfonamide] was run?
A: Its IC50 is 7.7 nM.

Q: For `N#Cc1cc(S(=O)(=O)Nc2ncns2)ccc1Oc1ccc(-c2ccccc2)cc1-c1ccnnc1` [Example 12, 3-Cyano-4-[(3-pyridazin-4-ylbiphenyl-4-yl)oxy]-N-1,2,4-thiadiazol-5-ylbenzenesulfonamide], which IC50 is on record?
A: The IC50 was 1.9 nM.

Q: How did the IC50 turn out when `CN1CC(n2nccc2-c2cc(-c3ccccc3C(F)(F)F)ccc2Oc2cc(F)c(S(=O)(=O)Nc3nncs3)cc2Cl)C1` [Example 13, 5-Chloro-2-fluoro-4-({3-[1-(1-methylazetidin-3-yl)-1H-pyrazol-5-yl]-2′-(trifluoromethyl)biphenyl-4-yl}oxy)-N-1,3,4-thiadiazol-2-ylbenzenesulfonamide] was run?
A: Its IC50 is 2.2 nM.

Q: Which IC50 does the source give for `CN1CC(n2nccc2-c2cc(-c3ccc(C(F)(F)F)cc3)ccc2Oc2cc(F)c(S(=O)(=O)Nc3nncs3)cc2Cl)C1` [Example 14, 5-Chloro-2-fluoro-4-({3-[1-(1-methylazetidin-3-yl)-1H-pyrazol-5-yl]-4′-(trifluoromethyl)biphenyl-4-yl}oxy)-N-1,3,4-thiadiazol-2-ylbenzenesulfonamide] here?
A: Its IC50 is 1.1 nM.

Q: How did the IC50 turn out when `Cn1nccc1-c1cc(-c2ccccc2)ccc1Oc1ccc(S(=O)(=O)Nc2ncc(F)s2)cc1C#N` [Example 15, 3-Cyano-N-(5-fluoro-1,3-thiazol-2-yl)-4-{[3-(1-methyl-1H-pyrazol-5-yl)biphenyl-4-yl]oxy}benzenesulfonamide] was run?
A: The IC50 was 6 nM.

Q: Which IC50 does the source give for `Cn1nccc1-c1cc(-c2ccccc2)ccc1Oc1ccc(S(=O)(=O)Nc2ncns2)cc1C#N` [Example 16, 3-Cyano-4-{[3-(1-methyl-1H-pyrazol-5-yl)biphenyl-4-yl]oxy}-N-1,2,4-thiadiazol-5-ylbenzenesulfonamide] here?
A: The IC50 was 1.5 nM.

Q: With `N#Cc1cc(S(=O)(=O)Nc2ncns2)ccc1Oc1ccc(-c2ccccc2C(F)(F)F)cc1-c1ccnnc1` [Example 17, 3-Cyano-4-{[3-pyridazin-4-yl-2′-(trifluoromethyl)biphenyl-4-yl]oxy}-N-1,2,4-thiadiazol-5-ylbenzenesulfonamide] as the compound, how does the IC50 read?
A: Its IC50 is 2.7 nM.

Q: How did the IC50 turn out when `COc1cccc(-c2ccc(Oc3ccc(S(=O)(=O)Nc4nccs4)cc3C#N)c(-c3ccnn3C)c2)c1` [Example 18, 3-Cyano-4-{[3′-methoxy-3-(1-methyl-1H-pyrazol-5-yl)biphenyl-4-yl]oxy}-N-(1,3-thiazol-2-yl)benzenesulfonamide] was run?
A: The IC50 was 18 nM.

Q: With `COc1ccccc1-c1ccc(Oc2ccc(S(=O)(=O)Nc3nccs3)cc2C#N)c(-c2ccnn2C)c1` [Example 19, 3-Cyano-4-{[2′-methoxy-3-(1-methyl-1H-pyrazol-5-yl)biphenyl-4-yl]oxy}-N-(1,3-thiazol-2-yl)benzenesulfonamide] as the compound, how does the IC50 read?
A: Its IC50 is 11 nM.

Q: Which IC50 does the source give for `Cn1nccc1-c1cc(-c2ccccc2)ccc1Oc1ccc(S(=O)(=O)Nc2ccc(F)cn2)cc1C#N` [Example 20, 3-Cyano-N-(5-fluoropyridin-2-yl)-4-{[3-(1-methyl-1H-pyrazol-5-yl)biphenyl-4-yl]oxy}benzenesulfonamide] here?
A: Its IC50 is 240 nM.

Q: `Cn1nccc1-c1cc(-c2cccc(CN)c2)ccc1Oc1ccc(S(=O)(=O)Nc2nccs2)cc1C#N` [Example 21, 4-{[3′-(Aminomethyl)-3-(1-methyl-1H-pyrazol-5-yl)biphenyl-4-yl]oxy}-3-cyano-N-(1,3-thiazol-2-yl)benzenesulfonamide, hydrochloride salt] was tested. Which IC50 did it give?
A: The IC50 was 100 nM.

Q: With `Cn1nccc1-c1cc(-c2ccccc2)ccc1Oc1cc(F)c(S(=O)(=O)Nc2ccc(F)cn2)cc1Cl` [Example 22, 5-Chloro-2-fluoro-N-(5-fluoropyridin-2-yl)-4-{[3-(1-methyl-1H-pyrazol-5-yl)biphenyl-4-yl]oxy}benzenesulfonamide] as the compound, how does the IC50 read?
A: Its IC50 is 33 nM.

Q: With `CNCc1ccccc1-c1ccc(Oc2ccc(S(=O)(=O)Nc3nccs3)cc2C#N)c(-c2ccnn2C)c1` [Example 23, 3-Cyano-4-({2′-[(methylamino)methyl]-3-(1-methyl-1H-pyrazol-5-yl)biphenyl-4-yl}oxy)-N-(1,3-thiazol-2-yl)benzenesulfonamide, trifluoroacetate salt] as the compound, how does the IC50 read?
A: Its IC50 is 5.1 nM.

Q: For `O=S(=O)(Nc1nncs1)c1cc(Cl)c(Oc2cc(Cl)c(-c3ccc(F)cc3)cc2-c2ccnnc2)cc1F` [Example 24, 5-Chloro-4-{[2-chloro-4′-fluoro-5-(pyridazin-4-yl)biphenyl-4-yl]oxy}-2-fluoro-N-(1,3,4-thiadiazol-2-yl)benzenesulfonamide], which IC50 is on record?
A: The IC50 was 1.7 nM.

Q: For `Nc1n[nH]cc1-c1cc(-c2cccc(C(F)(F)F)c2)ccc1Oc1cc(F)c(S(=O)(=O)Nc2nncs2)cc1Cl` [Example 25, 4-{[3-(3-Amino-1H-pyrazol-4-yl)-3′-(trifluoromethyl)biphenyl-4-yl]oxy}-5-chloro-2-fluoro-N-(1,3,4-thiadiazol-2-yl)benzenesulfonamide], which IC50 is on record?
A: Its IC50 is 0.8 nM.
